Our source for the Ki and EC50 values is patent US9951064B2, “Azaindazole compounds as inhibitors of T790M containing EGFR mutants” (Genentech, Inc., priority 2013, dated 2018).

One experiment addresses T1, EGFR T790M L858R (Homo sapiens, UniProt P00533, L858R/T790M).
T1 construct: purchased Life Technologies PV4879
Kind of experiment: EGFR T790M L858R biochemical assay (Caliper mobility shift). The following applies: 5 μM ATP; apparent Ki (Morrison fit) converted by Cheng-Prusoff, Km of ATP 1.3 μM. Put shortly: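 Caliper mobility-shift read-out, electrophoretic separation of substrate from product, after a 30-minute kinase reaction at 22 °C. EDTA at 80 mM terminates each reaction.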

Another experiment addresses T2, EGFR del746-750 T790M (Homo sapiens, UniProt P00533, DEL746-750/T790M).
T2 construct: purchased Carna Biosciences 08-528
Kind of experiment: EGFR del746-750 T790M biochemical assay (Caliper mobility shift). The following applies: 5 μM ATP; apparent Ki (Morrison fit) converted by Cheng-Prusoff, Km of ATP 2.1 μM; read-out: EGFR(T790M/d746-750) Ki. The method, boiled down: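 Caliper mobility-shift read-out, with product electrophoretically resolved from substrate and measured. Reactions were quenched with 80 mM EDTA after 30 min at 22 °C.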

Experiment [1] concerns the target T3, phosphor-EGFR in H1975(L585R/T790M) mutant EGFR expressing cells (Homo sapiens, UniProt P00533, L858R/T790M).
T3 construct: host or cells: NCI-H1975
Put plainly: H1975 pEGFR MSD cellular assay. Type of experiment: cell-based. Particulars: NCI-H1975 cells, serum starved, 1 hour compound incubation, pEGFR Tyr1068 MSD; read-out: HI975 pEGFR EC50. Put shortly: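 Phospho-EGFR read by MSD electrochemiluminescence: capture with anti-pEGFR antibody (overnight, 4° C), detection with SULFO-TAG anti-total EGFR (1 hour, room temperature). Before lysis, H1975 cells starved of serum overnight got compound for 1 hour at 37° C, 0.5% DMSO final. EC50 via four-parameter logistic regression of percent inhibition.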

Experiment [2] relates to H1975 (EGFR T790M/L858R) cell proliferation. Put plainly: H1975 proliferation assay (Cell Titer-Glo). Particulars: Homo sapiens, NCI-H1975, 72 h, NCI-H1975 cells, 72 hour incubation, read-out: H1975 antiproliferative EC50. Type of experiment: cell-based. How it is done:
H1975 Proliferation Assays
All cell culture reagents were purchased from Invitrogen/Gibco. Cells are cultured at 37° C. at 5% CO2 and split as recommended by ATCC.

The structures appear in SMILES notation.

T2 sequence (P00533 with tags, fused parts or gaps DEL746-750/T790M limits assumed): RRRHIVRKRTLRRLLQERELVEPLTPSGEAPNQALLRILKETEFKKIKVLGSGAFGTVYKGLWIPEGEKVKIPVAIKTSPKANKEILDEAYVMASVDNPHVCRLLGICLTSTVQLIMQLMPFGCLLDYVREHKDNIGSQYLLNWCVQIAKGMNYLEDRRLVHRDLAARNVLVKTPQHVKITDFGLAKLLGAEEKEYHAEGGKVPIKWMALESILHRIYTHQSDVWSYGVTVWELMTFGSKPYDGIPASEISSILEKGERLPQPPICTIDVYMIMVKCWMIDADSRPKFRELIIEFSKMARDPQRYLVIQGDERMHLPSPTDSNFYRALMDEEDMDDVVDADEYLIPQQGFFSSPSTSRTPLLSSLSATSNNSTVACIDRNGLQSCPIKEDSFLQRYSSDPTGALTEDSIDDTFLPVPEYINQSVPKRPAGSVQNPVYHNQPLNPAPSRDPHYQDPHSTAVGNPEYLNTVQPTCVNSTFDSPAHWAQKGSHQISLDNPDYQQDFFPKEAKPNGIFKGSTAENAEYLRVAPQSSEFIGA
T1 sequence (P00533 25-1210 T790M/L858R): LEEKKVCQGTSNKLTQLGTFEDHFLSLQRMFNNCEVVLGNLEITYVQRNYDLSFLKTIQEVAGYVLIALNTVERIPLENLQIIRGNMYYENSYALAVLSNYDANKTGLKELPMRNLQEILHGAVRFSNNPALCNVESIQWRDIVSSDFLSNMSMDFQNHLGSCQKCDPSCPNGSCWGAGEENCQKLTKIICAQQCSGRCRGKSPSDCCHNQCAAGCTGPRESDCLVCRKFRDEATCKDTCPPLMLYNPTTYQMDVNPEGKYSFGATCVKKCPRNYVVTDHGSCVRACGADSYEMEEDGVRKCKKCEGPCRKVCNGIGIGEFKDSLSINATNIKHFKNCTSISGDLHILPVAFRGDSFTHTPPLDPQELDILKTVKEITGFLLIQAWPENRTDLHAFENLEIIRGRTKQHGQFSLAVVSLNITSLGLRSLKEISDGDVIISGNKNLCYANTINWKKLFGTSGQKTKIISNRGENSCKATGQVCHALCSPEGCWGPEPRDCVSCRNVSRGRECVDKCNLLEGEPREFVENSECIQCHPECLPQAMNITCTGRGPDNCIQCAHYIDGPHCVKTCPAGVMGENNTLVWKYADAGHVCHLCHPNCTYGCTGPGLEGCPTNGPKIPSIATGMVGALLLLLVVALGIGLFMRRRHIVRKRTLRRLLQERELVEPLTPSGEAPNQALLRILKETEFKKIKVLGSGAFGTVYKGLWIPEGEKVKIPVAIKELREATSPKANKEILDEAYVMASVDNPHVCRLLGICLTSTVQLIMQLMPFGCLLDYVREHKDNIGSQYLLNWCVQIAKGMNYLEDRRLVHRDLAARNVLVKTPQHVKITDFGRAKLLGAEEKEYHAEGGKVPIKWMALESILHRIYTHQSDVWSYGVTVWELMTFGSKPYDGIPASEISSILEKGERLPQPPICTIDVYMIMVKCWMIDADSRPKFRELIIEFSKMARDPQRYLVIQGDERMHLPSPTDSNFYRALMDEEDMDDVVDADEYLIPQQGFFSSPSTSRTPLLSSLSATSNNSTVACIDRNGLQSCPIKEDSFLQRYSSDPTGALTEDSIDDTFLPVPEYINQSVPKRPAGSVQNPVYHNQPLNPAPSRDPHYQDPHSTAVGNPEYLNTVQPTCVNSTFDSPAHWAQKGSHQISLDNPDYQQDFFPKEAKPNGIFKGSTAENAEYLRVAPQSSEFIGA
T3 sequence (P00533 25-1210 T790M/L858R): as above

As to `CC(C)n1nc(N2CCOC(CO)C2)c2cnc(Nc3ccnc(-c4cnn(S(=O)(=O)C5CC5)c4)n3)cc21` (stereo not drawn) [Example 53, (4-(6-(2-(1-(cyclopropylsulfonyl)-1H-pyrazol-4-yl)pyrimidin-4-ylamino)-1-isopropyl-1H-pyrazolo[4,3-c]pyridin-3-yl)morpholin-2-yl)methanol], the Ki at EGFR T790M L858R amounted to 1.2 nM; at EGFR del746-750 T790M it was 0.9 nM. The EC50 in experiment [1] amounted to 53.6 nM; in experiment [2], 241 nM.
For `CCC(C)n1nc(N2CC[C@@H](O)C2)c2cnc(Nc3ccnc(N4CCC(CC#N)(OC)CC4)n3)cc21` (mixture of isomers) [Example 81, 2-(1-(4-(1-sec-Butyl-3-((R)-3-hydroxypyrrolidin-1-yl)-1H-pyrazolo[4,3-c]pyridin-6-ylamino)pyrimidin-2-yl)-4-methoxypiperidin-4-yl)acetonitrile], the Ki at EGFR T790M L858R turned out to be 6.4 nM; at EGFR del746-750 T790M, 7.1 nM. In addition, the values for the EC50 in experiment [1] and in experiment [2] were 265 nM and 1470 nM, respectively.
As for `CC[C@H](C)n1nc(N2CC3(COC3)C2)c2cnc(Nc3ccnc(OCC(C)(C)S(C)(=O)=O)n3)cc21` [Example 71, [1-((S)-sec-Butyl)-3-(2-oxa-6-azaspiro[3.3]hept-6-yl)-1H-pyrazolo[4,3-c]pyridin-6-yl]-[2-(2-methanesulfonyl-2-methylpropoxy)pyrimidin-4-yl]amine], the figures for the Ki on EGFR T790M L858R and on EGFR del746-750 T790M were 4.7 nM and 13.2 nM, respectively. Moreover, the half-maximal effective concentration (EC50) was 256 nM in experiment [1] and 785 nM in experiment [2].
For `CC(C)n1nc(N2CC(F)(F)C2)c2cnc(Nc3ccnc(-c4cnn(S(=O)(=O)C5CC5)c4)n3)cc21` [Example 154, N-(2-(1-(Cyclopropylsulfonyl)-1H-pyrazol-4-yl)pyrimidin-4-yl)-3-(3,3-difluoroazetidin-1-yl)-1-isopropyl-1H-pyrazolo[4,3-c]pyridin-6-amine], the values for the Ki on EGFR T790M L858R and on EGFR del746-750 T790M were 2.8 nM and 2.9 nM, respectively. The results for the EC50 in experiment [1] and in experiment [2] were 82 nM and 312 nM, respectively.
Take `CCC(C)n1nc(N2CC(C(C)(C)O)C2)c2cnc(Nc3ccnc(N4CC[C@@H](O)[C@@H](F)C4)n3)cc21` (single isomer, unassigned) [Example 193, (3S,4R)-1-(4-((1-((R*)-sec-Butyl)-3-(3-(2-hydroxypropan-2-yl)azetidin-1-yl)-1H-pyrazolo[4,3-c]pyridin-6-yl)amino)pyrimidin-2-yl)-3-fluoropiperidin-4-ol]: the Ki at EGFR T790M L858R is 1.8 nM; on EGFR del746-750 T790M, 5.6 nM. For the same molecule, the figures for the EC50 in experiment [1] and in experiment [2] were 129 nM and 334 nM, respectively.
In the same order, the values of `CC(C)NC(=O)C1CN(c2nn(C(C)C)c3cc(Nc4ccnc(-c5cnn(S(=O)(=O)C6CC6)c5)n4)ncc23)C1` [Example 169, 1-(6-(2-(1-(Cyclopropylsulfonyl)-1H-pyrazol-4-yl)pyrimidin-4-ylamino)-1-isopropyl-1H-pyrazolo[4,3-c]pyridin-3-yl)-N-isopropylazetidine-3-carboxamide] are 1.4 nM, 1.2 nM, 34.2 nM and 825 nM.
For `CC(C)n1nc(N2CC[C@H](O)C2)c2cnc(Nc3ccnc(-c4cnn(S(=O)(=O)C5CC5)c4)n3)cc21` [Example 123, (S)-1-(6-(2-(1-(Cyclopropylsulfonyl)-1H-pyrazol-4-yl)pyrimidin-4-ylamino)-1-isopropyl-1H-pyrazolo[4,3-c]pyridin-3-yl)pyrrolidin-3-ol], the Ki on EGFR T790M L858R and on EGFR del746-750 T790M was 0.6 nM throughout. In addition, the concentration for a half-maximal effect (EC50) amounted to 4.4 nM in experiment [1] and 201 nM in experiment [2].
Regarding `CC(C)n1nc(N2CCCNC2=O)c2cnc(Nc3ccnc(-c4cnn(S(=O)(=O)C5CC5)c4)n3)cc21` [Example 150, 3-(6-(2-(1-(Cyclopropylsulfonyl)-1H-pyrazol-4-yl)pyrimidin-4-ylamino)-1-isopropyl-1H-pyrazolo[4,3-c]pyridin-3-yl)-tetrahydropyrimidin-2(1H)-one], the Ki amounted to 4.9 nM at EGFR T790M L858R and 3.6 nM on EGFR del746-750 T790M. Moreover, the EC50 in experiment [1] came out at 244 nM; in experiment [2], 765 nM.
Consider `CC(C)n1nc(N2CC(CC#N)C2)c2cnc(Nc3ccnc(-c4cnn(S(=O)(=O)C5CC5)c4)n3)cc21` [Example 121, 2-(1-(6-(2-(1-(Cyclopropylsulfonyl)-1H-pyrazol-4-yl)pyrimidin-4-ylamino)-1-isopropyl-1H-pyrazolo[4,3-c]pyridin-3-yl)azetidin-3-yl)acetonitrile], for which the Ki on EGFR T790M L858R is 0.8 nM; at EGFR del746-750 T790M, 0.7 nM. Further, the EC50 in experiment [1] was found to be 19.6 nM; in experiment [2], 184 nM.
For `CC(C)n1nc(N2CCC3(COC3)C2)c2cnc(Nc3ccnc(-c4cnn(S(=O)(=O)C5CC5)c4)n3)cc21` [Example 120, N-(2-(1-(Cyclopropylsulfonyl)-1H-pyrazol-4-yl)pyrimidin-4-yl)-1-isopropyl-3-(2-oxa-6-azaspiro[3.4]octan-6-yl)-1H-pyrazolo[4,3-c]pyridin-6-amine], the values for the Ki on EGFR T790M L858R and on EGFR del746-750 T790M were 1.4 nM and 1.3 nM, respectively. Further, the EC50 is 32.8 nM in experiment [1] and 431 nM in experiment [2].
With `CC(C)n1nc(NC(C)(C)C)c2cnc(Nc3ccnc(-c4cnn(S(=O)(=O)C5CC5)c4)n3)cc21` [Example 74, N^3-tert-Butyl-N^6-(2-(1-(cyclopropylsulfonyl)-1H-pyrazol-4-yl)pyrimidin-4-yl)-1-isopropyl-1H-pyrazolo[4,3-c]pyridine-3,6-diamine], the Ki on EGFR T790M L858R was found to be 129 nM; on EGFR del746-750 T790M, 106 nM. In addition, the concentration for a half-maximal effect (EC50) in experiment [1] was determined as 9260 nM; in experiment [2], 4620 nM.
For `CCC(C)n1nc(N2CC(F)(F)C2)c2cnc(Nc3ccnc(N4CCC(C)(O)CC4)n3)cc21` (stereo not drawn) [Example 146, 1-(4-(1-sec-Butyl-3-(3,3-difluoroazetidin-1-yl)-1H-pyrazolo[4,3-c]pyridin-6-ylamino)pyrimidin-2-yl)-4-methylpiperidin-4-ol], the Ki on EGFR T790M L858R is 2.5 nM; on EGFR del746-750 T790M, 4.9 nM. The EC50 in experiment [1] was determined as 277 nM; in experiment [2] it was 1600 nM.
Consider `CC[C@@H](C)n1nc(N2CC3(COC3)C2)c2cnc(Nc3ccnc(N4CC[C@](C)(O)[C@H](F)C4)n3)cc21` (single isomer, unassigned) [Example 67, (3R*,4S*)-1-{4-[1-((R)-sec-Butyl)-3-(2-oxa-6-azaspiro[3.3]hept-6-yl)-1H-pyrazolo[4,3-c]pyridin-6-ylamino]pyrimidin-2-yl}-3-fluoro-4-methylpiperidin-4-ol], for which the Ki was determined as 3.9 nM on EGFR T790M L858R and 11.1 nM at EGFR del746-750 T790M. Also, the results for the EC50 in experiment [1] and in experiment [2] were 257 nM and 1160 nM, respectively.
On the same counts, the results for `CCC(C)n1nc(N2C[C@H](O)[C@@H](F)C2)c2cnc(Nc3ccnc(N4CCC(C)(O)CC4)n3)cc21` (relative stereo) [Example 178, 1-(4-(1-sec-Butyl-3-(trans-3-fluoro-4-hydroxypyrrolidin-1-yl)-1H-pyrazolo[4,3-c]pyridin-6-ylamino)pyrimidin-2-yl)-4-methylpiperidin-4-ol] are 1.4 nM, 4.7 nM, 83.2 nM and 483 nM.
For `CC(C)n1nc(N2CC(O)C(F)(F)C2)c2cnc(Nc3ccnc(N4CCC(C)(O)CC4)n3)cc21` (stereo not drawn) [Example 85, 1-(4-(3-(3,3-Difluoro-4-hydroxypyrrolidin-1-yl)-1-isopropyl-1H-pyrazolo[4,3-c]pyridin-6-ylamino)pyrimidin-2-yl)-4-methylpiperidin-4-ol], the Ki at EGFR T790M L858R was found to be 5.5 nM; on EGFR del746-750 T790M, 15.5 nM. Moreover, the half-maximal effective concentration (EC50) in experiment [1] worked out at 308 nM; in experiment [2], 1330 nM.
In the same order, the values of `CCC(C)n1nc(N2CC[C@@H](O)C2)c2cnc(Nc3ccnc(N4CCC(S(C)(=O)=O)CC4)n3)cc21` (stereo partly drawn) [Example 206, (3R)-1-(1-(sec-Butyl)-6-((2-(4-(methylsulfonyl)piperidin-1-yl)pyrimidin-4-yl)amino)-1H-pyrazolo[4,3-c]pyridin-3-yl)pyrrolidin-3-ol] are 1.9 nM, 8.9 nM, 298 nM and 1110 nM.
On the same counts, the results for `CC(C)n1nc(N2CC[C@@H](O)C2)c2cnc(Nc3ccnc(N4CCC(C)(O)CC4)n3)cc21` [Example 205, (R)-1-(4-((3-(3-Hydroxypyrrolidin-1-yl)-1-isopropyl-1H-pyrazolo[4,3-c]pyridin-6-yl)amino)pyrimidin-2-yl)-4-methylpiperidin-4-ol] are 2.7 nM, 9 nM, 287 nM and 831 nM.
Turning to `CCC(C)n1nc(N2CCNC(=O)C2)c2cnc(Nc3ccnc(N4CCC(C)(O)CC4)n3)cc21` (stereo not drawn) [Example 92, 4-(1-sec-Butyl-6-(2-(4-hydroxy-4-methylpiperidin-1-yl)pyrimidin-4-ylamino)-1H-pyrazolo[4,3-c]pyridin-3-yl)piperazin-2-one], the Ki on EGFR T790M L858R turned out to be 3.8 nM; at EGFR del746-750 T790M it was 9.5 nM. The 50% effective concentration (EC50) worked out at 788 nM in experiment [1] and 1760 nM in experiment [2].

By EC50 is commonly meant the concentration that produces a half-maximal response.
